Measured values reported in patent publication US20220408731A1, “MODIFIED ANTIMICROBIAL PEPTIDES” (priority 2021, published 2022).
In brackets after ≈: the same amount, converted by molar mass. Where two headings read alike, the source gives them in different places. Square brackets hold non-standard residues; d marks the D form. Peptide text beside a SMILES is read from it. Dab = NCC[C@H](N)C(=O)O

What was measured:
[1] = tested on: C. albicans; experiment: Peptide or protein/Fluconazole combination, MIC and FICI; conditions: Candida albicans
[2] = tested on: C. glabrata; experiment: as above; conditions: Nakaseomyces glabratus
[3] = tested on: F. oxysporum; experiment: Antifungal MIC assay in SFM; format: cell-based
[4] = tested on: Botrytis cinerea
[5] = tested on: Fusarium graminearum
[6] = tested on: P. capsici; experiment: Antifungal MIC assay in SFM; format: cell-based
[7] = tested on: Coccidioides sp.; format: cell-based
[8] = tested on: Fusarium (F. solani); experiment: Antifungal MIC, CLSI M27/M38, half-strength potato dextrose broth; format: cell-based; conditions: Fusarium F4 (F. solani)
Description: (§1) Testing for antifungal activity used half-strength potato dextrose broth for peptides and RPMI for comparator antifungals fluconazole and voriconazole. CLSI M27 and M38 methodologies used for to measure MICs. Minimal Inhibitory Concentration (MIC) is the concentration of the compound, protein, or peptide at which there is no significant growth of the microorganism relative to the growth of the microorganism in growth medium lacking the compound, protein, or peptide.
(§2) […] The concentration range for peptides in potato dextrose broth was 0.06-2 mcg/ml, the concentration range for fluconazole was 0.125-64 mcg/ml, and the concentration range for voriconazole was 0.03-16 mcg/ml. MICs were determined at 24-72 hours.

[9] = tested on: Aspergillus fumigatus; experiment: as above; format: cell-based
Description: as §1, §2

[10] = tested on: P. variotii; experiment: as above; format: cell-based; conditions: P. variotii MYA-363; 24-72 hours
Description: as §1, §2

[11] = tested on: Fusarium (F. oxysporum); experiment: as above; format: cell-based
Description: as §1, §2

[12] = tested on: Candida auris; experiment: as above; format: cell-based
Description: as §1, §2

[13] = tested on: Candida albicans; experiment: as above; format: cell-based
Description: as §1, §2

[14] = tested on: C. krusei; experiment: as above; format: cell-based; conditions: C. krusei ATCC 6258; 24-72 hours
Description: as §1, §2

[15] = tested on: C. parapsilosis; experiment: as above; format: cell-based, Candida parapsilosis; conditions: C. parapsilosis ATCC 22019; 24-72 hours
Description: as §1, §2

Row | Structure (SMILES) | MIC (μM) Botrytis cinerea [4] [µM] | MIC Values (μM) against B. cinerea [4] [µM] | SFM + 2 mM CaCl2 MIC [4] [µM] | SFM + 100 mM KCl MIC [4] [µM] | SFM + 100 mM NaCl MIC [4] [µM] | SFM MIC [4] [µM] | MIC 100% ([7]; Coccidioides sp. Cocci1) [µg/mL] | MIC 100% ([7]; Coccidioides sp. Cocci2) [µg/mL] | MIC 100% ([7]; Coccidioides sp. DI17-143) [µg/mL] | MIC 100% [8] [µg/mL] | MIC 100% ([9]; Aspergillus fumigatus AF293) [µg/mL] | MIC 100% ([9]; Aspergillus fumigatus DI15-106) [µg/mL] | MIC 100% ([9]; Aspergillus fumigatus DI15-116) [µg/mL] | MIC 100% [10] [µg/mL] | MIC 100% ([11]; Fusarium F1 (F. oxysporum)) [µg/mL] | MIC 100% ([11]; Fusarium F2 (F. oxysporum)) [µg/mL] | MIC 100% ([12]; Candida auris DI17-46) [µg/mL] | MIC 100% ([12]; Candida auris DI17-47) [µg/mL] | MIC 100% ([12]; Candida auris DI17-48) [µg/mL] | MIC 100% ([13]; Candida albicans ATCC 90028) [µg/mL] | also measured
1 | OC(Cn1cncn1)(Cn1cncn1)c1ccc(F)cc1F [Fluconazole] |  |  |  |  |  |  |  |  |  |  |  |  |  |  |  |  |  |  |  |  | MIC ([1]; read-out: MIC alone (μM)): 206 µM; MIC ([1]; read-out: MIC alone μg/ml): 64 µg/mL; MIC ([2]; read-out: MIC alone (μM)): 206 µM; MIC ([2]; read-out: MIC alone μg/ml): 64 µg/mL
2 | C[C@@H](O)[C@H](NC(=O)[C@H](CS)NC(=O)[C@H](Cc1ccccc1)NC(=O)[C@H](CS)NC(=O)[C@H](CCCNC(=N)N)NC(=O)[C@H](CCCNC(=N)N)NC(=O)[C@H](CCCNC(=N)N)NC(=O)[C@H](Cc1ccccc1)NC(=O)CNC(=O)[C@H](CCCNC(=N)N)NC(=O)[C@H](CS)NC(=O)[C@H](CCCNC(=N)N)NC(=O)CNC(=O)CN)C(=O)N[C@H](C(=O)N[C@@H](Cc1c[nH]cn1)C(=O)N[C@@H](CS)C(N)=O)[C@@H](C)O [GMA4C_AC, reference compound] (H-GGRCRGFRRRCFCTTHC-NH2; N-terminus assumed) | 3 (≈ 6.05 µg/mL) | 3 (≈ 6.05 µg/mL) | >6 | 6 | 3 | 3 |  |  |  |  |  |  |  |  |  |  |  |  |  |  | F. oxysporum MIC [3]: 6 µM; Antifungal activity in presence of 100 mM NaCl or 100 mM KCl [4]: retain their antifungal activity; B. cinerea MIC [4]: 1.5 to 3.0 µM; F. graminearum MIC [5]: 3 µM; MIC (μM) Fusarium graminearum [5]: 3 µM (≈ 6.05 µg/mL); MIC Values (μM) against F. graminearum [5]: 6 µM (≈ 12.1 µg/mL); P. capsici MIC [6]: 1.5 µM
3 | CC[C@H](C)[C@H](NC(=O)[C@H](CCCNC(=N)N)NC(=O)[C@@H](NC(=O)[C@H](CS)NC(=O)[C@H](Cc1ccccc1)NC(=O)[C@H](CS)NC(=O)[C@H](CCCNC(=N)N)NC(=O)[C@H](CCCNC(=N)N)NC(=O)[C@H](CCCNC(=N)N)NC(=O)[C@H](Cc1ccccc1)NC(=O)CNC(=O)[C@H](CCCNC(=N)N)NC(=O)[C@H](CS)NC(=O)[C@H](CCCNC(=N)N)NC(=O)CNC(=O)CN)[C@@H](C)O)C(=O)N[C@@H](CS)C(N)=O [GMA4C_V2A] (H-GGRCRGFRRRCFCTRIC-NH2; N-terminus assumed) | 6 (≈ 12.3 µg/mL) | 3 (≈ 6.14 µg/mL) | >6 | 6 | 3 | 6 | 8 (≈ 3.91 µM) | 16 (≈ 7.82 µM) | 16 (≈ 7.82 µM) | 8 (≈ 3.91 µM) | 32 (≈ 15.6 µM) | >32 | >32 | 8 (≈ 3.91 µM) | 8 (≈ 3.91 µM) | 16 (≈ 7.82 µM) | 16 (≈ 7.82 µM) | 16 (≈ 7.82 µM) | 16 (≈ 7.82 µM) | 16 (≈ 7.82 µM) | B. cinerea MIC [4]: 3 µM; MIC 100% ([13]; Candida albicans CA3): 16 µg/mL (≈ 7.82 µM); MIC 100% ([13]; Candida albicans SC5314): 16 µg/mL (≈ 7.82 µM); MIC 100% [14]: 16 µg/mL (≈ 7.82 µM); MIC 100% [15]: 8 µg/mL (≈ 3.91 µM)
4 | N=C(N)NCCC[C@H](NC(=O)CNC(=O)[C@@H](N)Cc1ccccc1)C(=O)N[C@@H](CS)C(=O)N[C@@H](CCCNC(=N)N)C(=O)NCC(=O)N[C@@H](Cc1ccccc1)C(=O)N[C@@H](CCCNC(=N)N)C(=O)N[C@@H](CCCNC(=N)N)C(=O)N[C@@H](CCCNC(=N)N)C(=O)N[C@@H](CS)C(=O)N[C@@H](Cc1ccccc1)C(=O)N[C@@H](CS)C(=O)N[C@@H](Cc1c[nH]c2ccccc12)C(=O)N[C@@H](CCCNC(=N)N)C(=O)N[C@@H](Cc1c[nH]c2ccccc12)C(=O)N[C@@H](CS)C(N)=O [GMA4C_V4A] (H-FGRCRGFRRRCFCWRWC-NH2; N-terminus assumed) | 1.5 (≈ 3.44 µg/mL) | 1.5 (≈ 3.44 µg/mL) | 3 to 6 | 1.5 | 1.5 | 1.5 to 3 | 4 (≈ 1.74 µM) | 16 (≈ 6.97 µM) | 16 (≈ 6.97 µM) | 8 (≈ 3.49 µM) | 16 (≈ 6.97 µM) | 16 (≈ 6.97 µM) | 32 (≈ 13.9 µM) | 8 (≈ 3.49 µM) | 8 (≈ 3.49 µM) | 8 (≈ 3.49 µM) | 8 (≈ 3.49 µM) | 8 (≈ 3.49 µM) | 8 (≈ 3.49 µM) | 8 (≈ 3.49 µM) | Fungal growth inhibition in presence of 2 mM CaCl2 [4]: inhibit fungal growth; Potency relative to GMA4C_AC in presence of cations [4]: 2 fold; MIC 100% ([13]; Candida albicans CA3): 8 µg/mL (≈ 3.49 µM); MIC 100% ([13]; Candida albicans SC5314): 8 µg/mL (≈ 3.49 µM); MIC 100% [14]: 8 µg/mL (≈ 3.49 µM); MIC 100% [15]: 8 µg/mL (≈ 3.49 µM)
5 | NCC[C@H](NC(=O)CNC(=O)[C@@H](N)Cc1ccccc1)C(=O)N[C@@H](CS)C(=O)N[C@@H](CCN)C(=O)NCC(=O)N[C@@H](Cc1ccccc1)C(=O)N[C@@H](CCN)C(=O)N[C@@H](CCN)C(=O)N[C@@H](CCN)C(=O)N[C@@H](CS)C(=O)N[C@@H](Cc1ccccc1)C(=O)N[C@@H](CS)C(=O)N[C@@H](Cc1c[nH]c2ccccc12)C(=O)N[C@@H](CCN)C(=O)N[C@@H](Cc1c[nH]c2ccccc12)C(=O)N[C@@H](CS)C(N)=O [GMA4C_V5A, FG(Dab)C(Dab)GF(Dab)(Dab)(Dab)CFCW(Dab)WC-NH2] (H-FG[Dab]C[Dab]GF[Dab][Dab][Dab]CFCW[Dab]WC-NH2; N-terminus assumed) | 6 (≈ 11.8 µg/mL) | 3 (≈ 5.88 µg/mL) | >6 | >6 | 6 | 6 | 2 (≈ 1.02 µM) | 16 (≈ 8.17 µM) | 16 (≈ 8.17 µM) | 8 (≈ 4.08 µM) | 32 (≈ 16.3 µM) | >32 | >32 | 4 (≈ 2.04 µM) | 8 (≈ 4.08 µM) | 16 (≈ 8.17 µM) | 16 (≈ 8.17 µM) | 16 (≈ 8.17 µM) | 16 (≈ 8.17 µM) | 16 (≈ 8.17 µM) | MIC 100% ([13]; Candida albicans CA3): 8 µg/mL (≈ 4.08 µM); MIC 100% ([13]; Candida albicans SC5314): 16 µg/mL (≈ 8.17 µM); MIC 100% [14]: 8 µg/mL (≈ 4.08 µM); MIC 100% [15]: 8 µg/mL (≈ 4.08 µM)
